Reference: a melting point compilation (Tetko et al.; mined from patent text by program, amines drawn as free bases though some values may be those of a salt)

`O=C(O)CC1CCCc2c1n(Cc1ccc(F)cc1)c1c(F)cc(F)cc21` (centres undefined) gave a melting point of 195 to 196 °C.
Work on `O=C(O)c1cccc2cc(-c3ccc(Cl)cc3)oc12` yielded a melting point of 228 to 230 °C.
Work on `CC1(C)Cc2c(N)ccc(O)c2O1` yielded a melting point of 194 °C.
`O=C(Cn1nnnc1-c1ccsc1)OCCO` showed a melting point of 103 to 106 °C.
With `CCCCCCCCCc1cnc(-c2ccc(O)c(F)c2)nc1` the melting point was 46 to 47.5 °C.
With `CC(=O)[NH+]([O-])C[C@@H]1CN(c2ccc(N3CCN(S(C)(=O)=O)CC3)c(F)c2)C(=O)O1` (some centres undefined) the melting point was 168 to 170 °C.
Work on `CC(C)(OCc1cc2nc(C(F)(F)F)ccc2n1S(=O)(=O)c1ccccc1)C(=O)O` yielded a melting point of 122 to 125 °C.
For `CCOC(=O)c1sc2[nH]c(=O)ccc2c1Br`, the melting point was 262 to 268 °C.
For `COc1cccc(OC2COc3ccc(O)cc3C2O)c1` (centres undefined), the melting point was 187 to 189 °C.
`Brc1cncc(-c2ccccc2Oc2ccccc2)c1` gave a melting point of 109 °C.
With `COC(=O)C1=C(C)NC(C)=C(C(=O)OCCN2CCC(C(c3ccccc3)c3ccccc3)CC2)C1c1cccc([N+](=O)[O-])c1` (centres undefined) the melting point was 82 to 85 °C.
Compound `Cn1c(C(F)(F)F)cc(=O)n(-c2ccc([N+](=O)[O-])cc2F)c1=O` has a melting point of 135 to 136 °C.
In the case of `Cc1nn(-c2cc(Oc3ccc(C(=O)O)cc3)c(Cl)cc2F)c(=O)n1C(F)F`, the melting point was 184 to 185 °C.
Work on `CC(C)C1(C)C(=O)N=C2c3ccccc3C(=O)N21` (centres undefined) yielded a melting point of 98 to 100 °C.
`CC(C)(C)n1c(=O)c2c(-c3nc(C4CC4)no3)ncn2c2ccccc21` gave a melting point of 182 to 184 °C.
For `COC(=O)c1sc2c(C(F)(F)F)cccc2c1C1CCN(C(C)=O)CC1`, the melting point was 155 °C.
Work on `CC[C@@H](C(C)C)[C@H](O)[C@H](O)[C@@H](C)[C@H]1CC[C@H]2[C@@H]3CCC4=CC(=O)CC[C@]4(C)[C@H]3CC[C@]12C` yielded a melting point of 192 to 194 °C.
In the case of `O=C(NCc1ccc(Cl)cc1)c1cnc2c(F)cc(-c3cccs3)cc2c1O`, the melting point was 298 to 301 °C.
For `O=C1c2cccc(NCCc3ccc(O)cc3)c2C(=O)c2c(NCCc3ccc(O)cc3)cccc21`, the melting point was 181 to 182 °C.
With `O=S(=O)(c1ccccc1)c1ccc2c(c1)OCCN2C1CCNC1` (centres undefined) the melting point was 123 to 128 °C.
For `Cn1cc(C2CCC3(CC2)OCCO3)c2cc(C#N)ccc21`, the melting point was 170 to 172 °C.
With `C[Si](C)(CCO)Cc1ccccc1` the melting point was 132 to 133 °C.
Work on `CCCCNc1cncc(C#N)c1` yielded a melting point of 73 °C.
Compound `Cc1oc(-c2ccccc2)nc1COc1ccc(/C=C/C=O)cn1` has a melting point of 147 to 148 °C.
`CC(=O)OCC1OC(OC2C(COC(C)=O)OC(Sc3ccc(N)cc3)C(OC(C)=O)C2OC(C)=O)C(OC(C)=O)C(OC(C)=O)C1OC(C)=O` (centres undefined) gave a melting point of 145 to 148 °C.
`CCOC(=O)c1cn(-c2ncc(Cl)cc2Cl)cn1` gave a melting point of 114 to 115 °C.
Compound `COc1cc(C(C)=O)ccc1-c1ccccc1F` has a melting point of 84 to 85 °C.
`CCOP(=O)(OCC)C(Nc1cnccn1)P(=O)(OCC)OCC` gave a melting point of 56 to 59 °C.
Work on `COc1ccc(S(=O)(=O)N(CCC(=O)N2CCC(C(=O)O)CC2)C(CC(C)C)C(=O)NO)cc1` (centres undefined) yielded a melting point of 118 to 120 °C.
`NC(=O)c1cccc2c3c(cc([N+](=O)[O-])c12)N(C(=O)C(F)(F)F)CC3CCl` (centres undefined) showed a melting point of 272 to 277 °C.
Compound `CCOC(=O)C1=Cc2c(ccc(Cl)c2I)OC1C(F)(F)F` (centres undefined) has a melting point of 117 to 119 °C.
For `COC(=O)C(NC(=O)OCc1ccccc1)OC` (centres undefined), the melting point was 74 to 75 °C.
With `COc1ccc(N2CCN(c3c(C)c(C)c4c(c3C)C(c3ccc(-c5ccccc5)cc3)C(C)(C)O4)CC2)cc1` (centres undefined) the melting point was 147 to 148 °C.
Compound `Cc1ccc(Cc2cnc(NCCCCNc3ccccn3)[nH]c2=O)cn1` has a melting point of 184 °C.
Work on `COC1CCN(S(=O)(=O)c2ccc(S(=O)(=O)Cl)cc2C(F)(F)F)CC1` yielded a melting point of 117 to 119 °C.
`Cc1ccc(C=C2NC(=O)N(c3cc(F)ccc3F)C2=O)cc1` showed a melting point of 218 to 224 °C.
Compound `CCOC(=O)C(=C1SCSCS1)c1ccc(Oc2ccccc2)cc1` has a melting point of 134 to 135 °C.
With `Cc1ccc(S(=O)(=O)Nc2ccc(C#N)cc2C#N)cc1` the melting point was 200 to 206 °C.
Work on `COC(=O)C1(O)Cc2cc(Cl)ccc2C1=O` (single isomer, unassigned; (+)) yielded a melting point of 163 to 165 °C.
With `CC(C)C1Sc2ccccc2NC(=O)C1NC(=O)C(F)(F)F` (centres undefined) the melting point was 212 to 215 °C.
`COCC(=O)Nc1cc2c(cc1C#N)C(Nc1ccc(C(=O)OC(C)(C)C)cc1)CC2` (centres undefined) showed a melting point of 163 to 164 °C.
With `CCCCCCCCc1cc2c(cc1C(C)=O)C(C)(C)CCS2(=O)=O` the melting point was 77 to 78 °C.
With `COc1ccc(C2COC(c3c(F)cccc3Cl)=N2)cc1-c1ccccc1` (centres undefined) the melting point was 80.5 to 82 °C.
Work on `CC(O)c1ccc(C(C)Oc2cncc(C(=O)Nc3ccc(C#N)cc3)c2)cc1` (centres undefined) yielded a melting point of 179 to 181 °C.
Compound `Cc1nnc(-c2ccc3occ(-c4ccncc4Cl)c3c2)o1` has a melting point of 147 to 148 °C.
`O=C(c1ccc2c(c1)C(=O)N1CCC[C@H]1CO2)N1CCOCC1` showed a melting point of 158 to 161 °C.
With `CCOC(=O)c1cnn(-c2ccccc2)c1OC` the melting point was 67 °C.
With `CCOc1cc(N)c([N+](=O)[O-])cc1C(=O)OC` the melting point was 210 °C.
In the case of `Cn1cc(-c2cc3cccnc3[nH]2)c2cc(C(=O)NCCC(N)=O)ccc21`, the melting point was 286 to 288 °C.
`c1ccc(-c2ccc3c(c2)CCN(Cc2c[nH]c4ncccc24)C3)cc1` showed a melting point of 211 to 213 °C.
For `O=C1NC(=O)C2(c3cc(O)c(Cl)cc3F)CCCCC12` (centres undefined), the melting point was 140 to 141 °C.
`O=C(c1cc(N2CCCCC2)ccn1)N(O)CCCc1ccccc1` gave a melting point of 125 to 130 °C.
For `Nc1ncnc2c1c(I)cn2C1CC(O)C(CO)O1` (centres undefined), the melting point was 194 °C.
Work on `N#CCOc1cccc2c1c1cccc(F)c1n2Cc1ccccc1` yielded a melting point of 134 °C.
With `CCCCCNC(=O)[C@@H]1CCCN1C(=O)[C@@H](N)CC` the melting point was 140 to 141 °C.
Compound `CCOc1cc(OCC)nc(-c2nsc3ccc(-n4c(=O)cc(C(F)(F)F)n(C)c4=O)cc23)n1` has a melting point of 197 to 200 °C.
`COc1cc2ncnc(Nc3ccc(F)c(Cl)c3)c2cc1OCC1(C)COCOC1` showed a melting point of 212 to 213 °C.
In the case of `Cc1c(C(N)=O)nc2c(=O)[nH]c3cc(C(F)(F)F)ccc3n12`, the melting point was over 250 °C.
For `Cc1noc(C)c1-c1cnc2c(c1)N(Cc1c(F)ccc(F)c1Cl)CCN2`, the melting point was 215 to 216 °C.
`COc1cc(C(C)=O)ccc1OCCN1CCC(C(c2ccc(F)cc2)c2ccc(F)cc2)CC1` gave a melting point of 129 to 131 °C.
In the case of `O=c1ccoc(C(O)c2cccnc2)c1O` (centres undefined), the melting point was 176 to 180 °C.
`O=C(Nc1ccccc1Sc1ccccc1-c1nnn[nH]1)c1ccc(OCCCCc2ccccc2)cc1` showed a melting point of 156 to 159 °C.
`Nc1nc2ccccc2c2sc(CCc3ccccc3)nc12` showed a melting point of 158 to 159 °C.
`COc1ccc(NS(C)(=O)=O)cc1C(=O)O` showed a melting point of 160 to 163 °C.
With `Cc1cnc2ccc3c(c2c1)OC(CN1CC=C(c2c[nH]c4ccccc24)CC1)CO3` (centres undefined) the melting point was 211 to 213 °C.
`CCCc1cc(-c2cc(OC)c3c(C)c(C)c(=O)oc3c2)on1` gave a melting point of 94 °C.
Work on `Cc1cc(OCc2ccccc2)c2cc(C(N)=O)[nH]c2c1` yielded a melting point of 185 to 187 °C.
Work on `COC(=O)c1ccnc2ccc(C(=O)c3ccc(Cl)cc3)cc12` yielded a melting point of 126 °C.
Work on `C=C=CS(=O)(=O)c1ncn(C(=O)N(CC)CC)n1` yielded a melting point of 98 to 100 °C.
Compound `Cc1coc(-c2ccc3c(c2)c2cc(-c4ccc(Cl)cc4Cl)c(=O)n(C)c2n3C)n1` has a melting point of 258 to 261 °C.
For `N#CCCOc1cccc(OCCC#N)c1`, the melting point was 109 to 110 °C.
`CCCc1c(OCCCOc2ccc(C(=O)CCC(=O)O)c(F)c2)ccc(C(C)=O)c1O` gave a melting point of 113 to 118 °C.
In the case of `COCCCn1c2cc(C)ccc2n2c(C)nnc12`, the melting point was 113 to 114 °C.
`CC1CC(=O)NN=C1c1ccc(NC2=NCCN2)c(Br)c1` (centres undefined) gave a melting point of 265 to 267 °C.
`O=Cc1c(Cl)n(C2OC(CF)C(O)C2O)c2cc(Cl)c(Cl)cc12` (centres undefined) gave a melting point of 207 to 208 °C.
Compound `C[C@H](CSC(=O)C1CCCCC1)C(=O)N1CSC[C@H]1C(=O)O` has a melting point of 79.5 to 80 °C.
In the case of `N#Cc1cc(F)c(-n2nc(C(F)(F)F)n(N)c2=O)cc1F`, the melting point was 141 °C.
With `CCN1c2ncc(CC(=O)c3ccncc3)cc2C(=O)N(C)c2ccc(Cl)nc21` the melting point was 154 °C.
Work on `CCCCc1c(/C=C/C(=O)OC)cc(OC)c2ccccc12` yielded a melting point of 63 to 64 °C.
Work on `O=C(NCC1CC1)c1c(NC(=O)c2cc(C(F)(F)F)nn2-c2ncccc2Cl)c(Cl)cc2cn[nH]c12` yielded a melting point of over 250 °C.
Work on `CCOC(=O)C=Cc1ccc(N)c(O)c1` yielded a melting point of 134 to 135 °C.
Work on `O=C(NCC(F)(F)F)C1c2cc(F)ccc2-c2c(CCCCN3CCC(N4C(=O)c5ccccc5C4=O)CC3)cc(F)cc21` (centres undefined) yielded a melting point of 186 to 188 °C.
`Cc1nccn1-c1nc(-c2ccc(Cl)cc2)c(CCCOc2ccccc2O)o1` showed a melting point of 110 to 111 °C.
Compound `CCc1sc2c(c1S(=O)(=O)c1ccc(O)cc1)CN(Cc1ccccc1Cl)CC2` has a melting point of 176 °C.
With `CC(C)(C)SCC1(C(=O)O)Cc2ccccc2C1` the melting point was 158 to 163 °C.
Compound `COC(=O)c1c(Cl)nc2cc3c(cc2c1CN1CCN(C)CC1)OCCO3` has a melting point of 143 °C.
For `Cc1ccc(S(=O)(=O)N(C)c2cccc(-c3ccnc4c(C(=O)c5ccccc5)cnn34)c2)cc1`, the melting point was 170 to 171 °C.
With `CCCC(=O)Nc1ccc(N2CCC(NC[C@H](O)COc3cccc4[nH]c5ccccc5c34)CC2)cc1` the melting point was 194 to 199 °C.
With `COC(=O)C=C(Nc1cc(CCO)c([N+](=O)[O-])cc1OCc1ccccc1)C(F)(F)F` the melting point was 72 to 74 °C.
For `COc1ccc2c(Cc3nc4c(F)c(F)cc(F)c4s3)cn(CC(=O)O)c2c1`, the melting point was 118 to 120 °C.
In the case of `O=C(NCCCO)c1cc(Br)c(Br)[nH]1`, the melting point was 160 to 162 °C.
`CCCCNc1nc(C)c(C(=O)c2ccc(N)c(N)c2)s1` gave a melting point of 127 to 130 °C.
In the case of `OCCOc1ccc2cccnc2c1`, the melting point was 93 to 95 °C.
For `COc1cc(NC(=O)OC(C)(C)C)c(Cl)c(OC)c1`, the melting point was 94.5 to 95.5 °C.
`COCC1CN(c2ccc(C3CCC(OCCC#N)CC3)cc2)C(=O)O1` (racemic) gave a melting point of 57 to 59 °C.
In the case of `Nc1ccc(S(=O)(=O)Nc2cc(N)nc(S)n2)cc1`, the melting point was 232 to 234 °C.
In the case of `COc1ccc(C2=NN(Cc3ccc(C(=O)O)cc3)C(=O)[C@H]3CCCC[C@@H]23)cc1OC1CCCC1` (relative stereo), the melting point was 189 to 190 °C.
`COC1C(=O)NC=C1Cl` (centres undefined) showed a melting point of 96 to 98 °C.
In the case of `COC(=O)c1cc2c(s1)[C@@H](N1CCCCC1=O)[C@H](O)C(C)(C)O2` (relative stereo), the melting point was 104 to 106 °C.
